From ChEMBL document CHEMBL5346906, “Discovery of novel tranylcypromine-based derivatives as LSD1 inhibitors for gastric cancer treatment” (Eur J Med Chem, 2023)
Calls of active or inactive are those of the source. The calls are words filed in the database; no cut-off is given here.

How the values were obtained:
MGC-803 [1] = experiment: Induction of mitochondrial membrane potential depolarization in human MGC-803 assessed as late apoptotic cells measured at 8 micromol/L for 20 mins by JC-1 staining based flow cytometric analysis (reference value: 94.98%); format: functional; conditions: dose 8 µmol/L, at 8 µM
MGC-803 [2] = experiment: Antiproliferative activity against human MGC-803 cells assessed as reduction in stemness of cells by measuring tumor ball diameter at 0 to 8 uM after 48 hrs using 3D-spheroid assay; format: functional, cell-based; conditions: dose 0-8 µM
MGC-803 [3] = experiment: Induction of cell differentiation in human MGC-803 cells assessed as increase in CD86 level at 16 micromol/L incubated for 48 hrs by flow cytometric analysis (reference value: 60%); format: functional; conditions: dose 16 µmol/L, at 16 µM
MGC-803 [4] = experiment: Induction of mitochondrial membrane potential depolarization in human MGC-803 assessed as necrotic cells measured at 24 micromol/L for 20 mins by JC-1 staining based flow cytometric analysis (reference value: 0.00%); format: functional; conditions: dose 24 µmol/L, at 24 µM
MGC-803 [5] = experiment: Induction of mitochondrial membrane potential depolarization in human MGC-803 assessed as early apoptotic cells measured at 16 micromol/L for 20 mins by JC-1 staining based flow cytometric analysis (reference value: 4.52%); format: functional; conditions: dose 16 µmol/L, at 16 µM
[6] = target: T1, Lysine-specific histone demethylase 1A (Homo sapiens, UniProt O60341); experiment: Inhibition of LSD1 in human MGC-803 cells assessed as increase in dimethylation of H3K9; format: cell-based; conditions: dose 0-24 µmol/L
MGC-803 [7] = experiment: Induction of apoptosis in human MGC-803 cells assessed as early apoptotic cells at 16 micromol/L for 48 hrs by annexinV-FITC/PI staining based flow cytometric analysis (reference value: 2.92%); format: functional; conditions: dose 16 µmol/L, at 16 µM
[8] = target: T1, Lysine-specific histone demethylase 1A; experiment: Inhibition of LSD1 in human MGC-803 cells assessed as increase in methylation of H3K9 at 24 micromol/L; format: cell-based; conditions: dose 24.0 µmol/L
MGC-803 [9] = experiment: Induction of apoptosis in human MGC-803 cells assessed as early apoptotic cells at 8 micromol/L for 48 hrs by annexinV-FITC/PI staining based flow cytometric analysis (reference value: 2.92%); format: functional; conditions: dose 8 µmol/L, at 8 µM
MGC-803 [10] = experiment: Induction of mitochondrial membrane potential depolarization in human MGC-803 assessed as necrotic cells measured at 8 micromol/L for 20 mins by JC-1 staining based flow cytometric analysis (reference value: 0.00%); format: functional; conditions: dose 8 µmol/L, at 8 µM
MGC-803 [11] = experiment: Induction of mitochondrial membrane potential depolarization in human MGC-803 assessed as late apoptotic cells measured at 24 micromol/L for 20 mins by JC-1 staining based flow cytometric analysis (reference value: 94.98%); format: functional; conditions: dose 24 µmol/L, at 24 µM
MGC-803 [12] = experiment: Inhibition of cell migration in human MGC-803 cells assessed as scratch width decrease treated at 2 to 6 micromol/L for 48 hrs measured by transwell assay based crystal violet staining analysis; format: functional; conditions: dose 2-6 µmol/L
HCT-116 = experiment: Antiproliferative activity against human HCT-116 cells incubated for 48 hrs measured by MTT assay; format: functional, cell-based; conditions: HCT-116, 48 h
MGC-803 [13] = experiment: Induction of apoptosis in human MGC-803 cells assessed as decrease in anti-apoptotic c-IAP1 expression at 8 to 24 micromol/L; format: functional, cell-based; conditions: dose 8-24 µmol/L
MGC-803 [14] = experiment: Induction of mitochondrial membrane potential depolarization in human MGC-803 assessed as early apoptotic cells measured at 8 micromol/L for 20 mins by JC-1 staining based flow cytometric analysis (reference value: 4.52%); format: functional; conditions: dose 8 µmol/L, at 8 µM
MGC-803 [15] = experiment: Induction of apoptosis in human MGC-803 cells assessed as viable cells at 16 micromol/L for 48 hrs by annexinV-FITC/PI staining based flow cytometric analysis (reference value: 95.54%); format: functional; conditions: MGC-803, 48 h, dose 16 µmol/L, read-out: Activity
MGC-803 [16] = experiment: Induction of apoptosis in human MGC-803 cells assessed as cell death incubated at 8 to 24 micromol/L for 48 hrs measured by Calcein-AM/PI staining analysis; format: functional, cell-based; conditions: dose 8-24 µmol/L
[17] = target: T1, Lysine-specific histone demethylase 1A; experiment: Inhibition of LSD1 in human MGC-803 cells assessed as increase in methylation of H3K4 at 24 micromol/L; format: cell-based; conditions: dose 24.0 µmol/L
[18] = target: T2, Amine oxidase [flavin-containing] B (Homo sapiens, UniProt P27338); experiment: Inhibition of MAO-B (unknown origin) measured by MAO-GloTM method
T2 sequence (P27338 whole entry): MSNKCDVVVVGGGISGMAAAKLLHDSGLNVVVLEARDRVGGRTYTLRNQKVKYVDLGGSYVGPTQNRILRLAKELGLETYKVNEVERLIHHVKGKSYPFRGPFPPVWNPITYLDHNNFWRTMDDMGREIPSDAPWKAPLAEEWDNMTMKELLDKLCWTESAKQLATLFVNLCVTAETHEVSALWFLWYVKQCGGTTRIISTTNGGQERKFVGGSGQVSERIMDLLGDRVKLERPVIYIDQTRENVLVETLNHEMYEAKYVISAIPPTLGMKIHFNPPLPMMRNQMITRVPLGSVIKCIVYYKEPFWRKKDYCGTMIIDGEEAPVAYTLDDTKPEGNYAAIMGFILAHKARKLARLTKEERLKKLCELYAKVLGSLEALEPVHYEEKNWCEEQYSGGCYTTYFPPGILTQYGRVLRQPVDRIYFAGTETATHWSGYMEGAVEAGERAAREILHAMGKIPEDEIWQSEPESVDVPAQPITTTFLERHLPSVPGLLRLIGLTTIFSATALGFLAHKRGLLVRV

[19] = target: T1, Lysine-specific histone demethylase 1A; experiment: Inhibition of recombinant LSD1 (unknown origin) preincubated for 10 mins in presence of H3K4Me2 measured after 30 mins by measuring fluorescence intensity by fluorescence based microplate reader
MGC-803 [20] = experiment: Induction of apoptosis in human MGC-803 cells assessed as morphological change in cell nucleus incubated at 8 to 24 micromol/L for 48 hrs measured by DAPI staining analysis; format: functional, cell-based; conditions: dose 8-24 µmol/L
MGC-803 [21] = experiment: Induction of apoptosis in human MGC-803 cells assessed as late apoptotic cells at 24 micromol/L for 48 hrs by annexinV-FITC/PI staining based flow cytometric analysis (reference value: 1.32%); format: functional; conditions: dose 24 µmol/L, at 24 µM
[22] = target: T1, Lysine-specific histone demethylase 1A; experiment: Binding affinity to LSD1 in human MGC-803 cells assessed as thermal stability measured at 100 uM preincubated for 30 mins and incubated at 42 to 60 degreeC for 3 mins followed by cooled for 180 secs cycle repeated 3 times by CETSA based Western blotting analysis; format: cell-based; conditions: time 48.0 min
MGC-803 [23] = experiment: Induction of cell differentiation in human MGC-803 cells assessed as increase in CD86 level at 8 micromol/L incubated for 48 hrs by flow cytometric analysis (reference value: 60%); format: functional; conditions: dose 8 µmol/L, at 8 µM
[24] = target: T1, Lysine-specific histone demethylase 1A; experiment: Binding affinity to LSD1 in human MGC-803 cells assessed as thermal solubility measured at 100 uM preincubated for 30 mins and incubated at 42 to 60 degreeC for 3 mins followed by cooled for 180 secs cycle repeated 3 times by CETSA based Western blotting analysis; format: cell-based; conditions: time 48.0 min
MGC-803 [25] = experiment: Induction of apoptosis in human MGC-803 cells assessed as decrease in anti-apoptotic Bcl-2 expression at 8 to 24 micromol/L; format: functional, cell-based; conditions: dose 8-24 µmol/L
MGC-803 [26] = experiment: Induction of mitochondrial membrane potential depolarization in human MGC-803 assessed as necrotic cells measured at 16 micromol/L for 20 mins by JC-1 staining based flow cytometric analysis (reference value: 0.00%); format: functional; conditions: dose 16 µmol/L, at 16 µM
[27] = target: T1, Lysine-specific histone demethylase 1A; experiment: Inhibition of LSD1 in human MGC-803 cells assessed as increase in mono methylation of H3K4; format: cell-based; conditions: dose 0-24 µmol/L

O=C(c1cccc(CN[C@@H]2C[C@H]2c2ccc(F)c(F)c2)c1)N1CCN(c2ccc(Cl)c(Cl)c2)CC1
Activity (MGC-803 [1]): 93.18% | Activity (MGC-803 [2]): Active | Activity (MGC-803 [3]): 64.32% | Activity (MGC-803 [4]): 0.12% | Activity (MGC-803 [5]): 17.64% | inhibition [6]: Dose-Dependent Effect | Activity (MGC-803 [7]): 31.69% | inhibition [8]: Active | Activity (MGC-803 [9]): 5.92% | Activity (MGC-803 [10]): 0% | Activity (MGC-803 [11]): 69.38% | inhibition (MGC-803 [12]): Active | IC50 (HCT-116): 16.3 µM | Activity (MGC-803 [13]): Active | Activity (MGC-803 [14]): 6.3% | viability at 16 µM (MGC-803 [15]): 57.5% | Activity (MGC-803 [16]): Active | inhibition [17]: Active | IC50 [18]: 3.82 µM | IC50 [19]: 0.0253 µM | Activity (MGC-803 [20]): Active | Activity (MGC-803 [21]): 9.98% | Activity [22]: Active | Activity (MGC-803 [23]): 64.13% | Activity [24]: Active | Activity (MGC-803 [25]): Active | Activity (MGC-803 [26]): 0.02% | inhibition [27]: Dose-Dependent Effect
